The values below come from ChEMBL document CHEMBL4689842, “EUbOPEN Chemogenomics Library wave 1” (2021).

Format in all cases: toxicity, cell-based
One series has as its system HEK-293T. As to the kind of experiment: Incucyte cell viability with HEK293T. The following applies: human, 10 µM, compound concentration 10 uM.
A further series concerns Fibroblast. As to the kind of experiment: Incucyte cell viability with human fibroblast. Conditions: 10 µM, compound concentration 10 uM.
Another series relates to U2OS. Briefly: Incucyte cell viability with U2OS. The following applies: human, 10 µM, compound concentration 10 uM.
Setting [1] is: 0 h, replicate number 1, timepoint 0 hours.
The mark [2] stands for this setting: 6 h, replicate number 1, timepoint 6 hours.
Where [3] appears, read: 12 h, replicate number 1, timepoint 12 hours.
The mark [4] stands for this setting: 12 h, replicate number 2, timepoint 12 hours.
Setting [5] is: 18 h, replicate number 1, timepoint 18 hours.
[6] abbreviates: 24 h, replicate number 1, timepoint 24 hours.
Where [7] appears, read: 0 h, replicate number 2, timepoint 0 hours.
Setting [8] is: 6 h, replicate number 2, timepoint 6 hours.
Setting [9] is: 18 h, replicate number 2, timepoint 18 hours.
[10] abbreviates: 24 h, replicate number 2, timepoint 24 hours.
Further: filed as whole numbers so only -1 and 0 and 1 occur.

On to `COc1cccc(-c2c(C)n(Cc3c(F)cccc3C(F)(F)F)c(=O)n(C[C@H](NCCCC(=O)[O-])c3ccccc3)c2=O)c1F.[Na+]` [ELAGOLIX SODIUM], for which the “Growth Rate” value with HEK-293T (setting [1]) is listed as 0; in the series on HEK-293T (setting [2]), 1; with HEK-293T (setting [3]) it was 1; in the series on HEK-293T (setting [4]) it was 0; in the series on HEK-293T (setting [5]), 1; in the series with HEK-293T (setting [6]) it was 1. For the same molecule, the “Growth Rate” value in the series with Fibroblast (setting [1]) is listed as 0; with Fibroblast (setting [7]), 1; in the series on Fibroblast (setting [8]), 0; in the series with Fibroblast (setting [4]), 0; in the series on Fibroblast (setting [9]), 0; with Fibroblast (setting [10]), 0. Also, the “Growth Rate” value in the series on U2OS (setting [7]) was 1; in the series on U2OS (setting [2]) it was 0; in the series with U2OS (setting [3]) it was 0; in the series with U2OS (setting [5]), 0; in the series with U2OS (setting [9]), 1; in the series with U2OS (setting [6]), 0.
`C[C@H](NC(=O)Nc1cc2[nH]ncc2c(CO)n1)c1ccccn1` [ERKi-NC]: the “Growth Rate” value with HEK-293T (setting [1]) was found to be 0; with HEK-293T (setting [7]) it was 1; in the series on HEK-293T (setting [5]), 1; in the series with HEK-293T (setting [6]) it was 1; in the series with Fibroblast (setting [7]) it was 1; in the series with Fibroblast (setting [2]) it was 0. Further, the “Growth Rate” value in the series on Fibroblast (setting [3]) is on record as 0; in the series on Fibroblast (setting [5]), 1; in the series with Fibroblast (setting [9]) it was 0; in the series with Fibroblast (setting [6]) it was 1; with U2OS (setting [1]) it was 0; in the series on U2OS (setting [2]) it was 0. Besides, the “Growth Rate” value was 1 in the series on U2OS (setting [8]); 0 in the series with U2OS (setting [3]); 1 in the series on U2OS (setting [4]); 0 with U2OS (setting [5]); 1 in the series on U2OS (setting [9]); 0 in the series with U2OS (setting [6]). Also, the “Growth Rate” value in the series with U2OS (setting [10]) is 1.
On to `C[C@@H](NC(=O)Nc1cc2[nH]ncc2c(CO)n1)c1ccccc1` [ERKi], for which the “Growth Rate” value in the series on HEK-293T (setting [1]) is listed as 0; with HEK-293T (setting [10]), 1; in the series on Fibroblast (setting [1]), 0; in the series on Fibroblast (setting [3]), 1; with Fibroblast (setting [5]), 1; with Fibroblast (setting [6]), 0. Besides, the “Growth Rate” value in the series on Fibroblast (setting [10]) worked out at 1; in the series with U2OS (setting [1]), 0; in the series on U2OS (setting [2]) it was 0; in the series with U2OS (setting [3]), 0; in the series on U2OS (setting [5]), 0; with U2OS (setting [6]), 0.
In the case of `CCOC(=O)c1ncn2c1CN(C)C(=O)c1cc(F)ccc1-2` [FLUMAZENIL], the “Growth Rate” value with HEK-293T (setting [1]) was 0; in the series with HEK-293T (setting [2]), 1; in the series on HEK-293T (setting [8]), 0; with HEK-293T (setting [3]), 1; in the series with HEK-293T (setting [4]) it was 0; in the series on HEK-293T (setting [5]) it was 1. Besides, the “Growth Rate” value with HEK-293T (setting [9]) was found to be 0; with HEK-293T (setting [6]), 1; with HEK-293T (setting [10]), 0; in the series with Fibroblast (setting [1]), 0; in the series on Fibroblast (setting [8]), 0; with Fibroblast (setting [4]), 0. In addition, the “Growth Rate” value turned out to be 1 with Fibroblast (setting [5]); 0 in the series on Fibroblast (setting [9]); 1 with Fibroblast (setting [6]); 1 in the series on U2OS (setting [1]); 0 with U2OS (setting [2]); 0 with U2OS (setting [3]). Besides, the “Growth Rate” value in the series with U2OS (setting [5]) is given as 0; in the series with U2OS (setting [9]) it was 1; in the series with U2OS (setting [6]), 0; in the series on U2OS (setting [10]), 1.
For the molecule `CC(C)(N)C(=O)N[C@H](COCc1ccccc1)C(=O)N1CCC2(CC1)CN(S(C)(=O)=O)c1ccccc12.CS(=O)(=O)O` [IBUTAMOREN MESYLATE], the “Growth Rate” value with HEK-293T (setting [1]) came to 0; in the series on HEK-293T (setting [2]), 0; in the series with HEK-293T (setting [3]), 1; with HEK-293T (setting [5]), 0; with HEK-293T (setting [9]), 1; in the series on HEK-293T (setting [6]) it was 0. Moreover, the “Growth Rate” value is given as 1 in the series with HEK-293T (setting [10]); 1 in the series on Fibroblast (setting [1]); 0 with Fibroblast (setting [2]); 1 in the series on Fibroblast (setting [8]); 0 with Fibroblast (setting [3]); 1 with Fibroblast (setting [4]). Besides, the “Growth Rate” value is listed as 0 in the series with Fibroblast (setting [5]); 0 in the series on Fibroblast (setting [6]); 1 with U2OS (setting [8]); 1 in the series on U2OS (setting [4]); 1 with U2OS (setting [5]); 1 with U2OS (setting [6]).
For `CN(C)CCCN1c2ccccc2CCc2ccccc21.Cl` [IMIPRAMINE HYDROCHLORIDE], the “Growth Rate” value in the series on HEK-293T (setting [7]) stood at 1; in the series on HEK-293T (setting [2]), 0; with HEK-293T (setting [3]), 0; in the series on HEK-293T (setting [5]), 0; with HEK-293T (setting [6]), 0; in the series with Fibroblast (setting [1]), 0. Further, the “Growth Rate” value with Fibroblast (setting [2]) stood at 0; in the series on Fibroblast (setting [3]), 0; with Fibroblast (setting [5]), 1; with Fibroblast (setting [9]) it was 0; in the series on Fibroblast (setting [6]), 0; with U2OS (setting [7]), 0. For the same molecule, the “Growth Rate” value in the series on U2OS (setting [3]), in the series on U2OS (setting [5]) and in the series with U2OS (setting [6]) was 1 throughout.
In the case of `CC(C)(O)c1cncc(-c2nc3ccc(F)cc3n2C2CC2)c1` [MSD-CYP11B2], the “Growth Rate” value with HEK-293T (setting [1]) worked out at 0; in the series with HEK-293T (setting [7]) it was 1; with HEK-293T (setting [3]), 0; in the series with HEK-293T (setting [5]), 0; with HEK-293T (setting [9]), 1; with HEK-293T (setting [6]), 0. The “Growth Rate” value in the series on Fibroblast (setting [2]) came to 1; in the series on Fibroblast (setting [8]), 0; with Fibroblast (setting [3]), 1; in the series with Fibroblast (setting [5]) it was 1; with Fibroblast (setting [9]), 0; in the series on Fibroblast (setting [10]), 1. Further, the “Growth Rate” value with U2OS (setting [1]) came out at 0; with U2OS (setting [2]), 0; in the series on U2OS (setting [8]), 1; in the series with U2OS (setting [3]), 0; with U2OS (setting [4]), 1; in the series with U2OS (setting [5]) it was 0. The “Growth Rate” value in the series on U2OS (setting [9]) and in the series with U2OS (setting [6]) was 1 in each case.
In the case of `N#CC1(c2ccccn2)CCN(Cc2cc(C(=O)O)c(=O)n3ccccc23)CC1` [MSD-M1PAM], the “Growth Rate” value is 1 in the series with HEK-293T (setting [1]); 0 in the series with HEK-293T (setting [7]); 1 in the series with HEK-293T (setting [2]); 1 in the series with HEK-293T (setting [3]); 1 in the series with HEK-293T (setting [5]); 1 in the series on HEK-293T (setting [6]). Further, the “Growth Rate” value with HEK-293T (setting [10]) was determined as 0; in the series with Fibroblast (setting [1]), 0; in the series on Fibroblast (setting [2]), 0; in the series on Fibroblast (setting [3]), 0; in the series with Fibroblast (setting [5]), 0; with Fibroblast (setting [9]), 1. For the same molecule, the “Growth Rate” value in the series on Fibroblast (setting [6]) is given as 0; in the series with U2OS (setting [7]), 1; with U2OS (setting [2]) it was 0; in the series with U2OS (setting [3]) it was 0; in the series with U2OS (setting [5]) it was 0; in the series with U2OS (setting [9]), 1. The entries for the “Growth Rate” value in the series with U2OS (setting [6]) and in the series with U2OS (setting [10]) were 0 and 1, respectively.
